Data taken from patent US12060355B2, “Compounds for use in the treatment of fascioliasis” (Merck Patent GmbH, priority 2018, dated 2024).

Key:
F. hepatica adult fluke = F. hepatica adult fluke motility score, in vitro; assay type: cell-based, Fasciola hepatica; design: key: Good movement Score 1 • (Curled, sticking on wall, movement on petri plate or conical flask); Moderate movement Score 2 • (Less vigor but more than 10 seconds pulses or peristaltic waves); Resting Score 3 • (Less than 10 second pulses in head and body); Apathetic Score 4 • (Head and body with less than 2 second pulses); Faint movement of suckers Score 5 • (Movement of oral or ventral suckers only, whole body paralyzed); Inert Score 6 • (No movement at all or dead); conditions: for F. hepatica motility score after 24 h / F. hepatica motility score after 48 h / F. hepatica motility score after 72 h: adult fluke
Source text: The routine biological assays using adult liver fluke are described in Alessandra Crusco, Cinzia Bordoni, Anand Chakroborty, Kezia C. L. Whatley, Helen Whiteland, Andrew D. Westwell, Karl F. Hoffmann, “Design, synthesis and anthelmintic activity of 7-keto-sempervirol analogues”, European Journal of Medicinal Chemistry, Volume 152, 2018, Pages 87-100.
The routine biological assays using adult or juvenile S. mansoni worms and cytotoxicity assays using MRC-5 cells have been disclosed previously in Mansour, N. R., et al. (2016). “High Throughput Screening Identifies Novel Lead Compounds with Activity against Larval, Juvenile and Schistosoma mansoni PLoS Negl Trop Dis 10(4): e0004659. […] Motility is scored as per the table below: • Good movement Score 1 • (Curled, sticking on wall, movement on petri plate or conical flask) • Moderate movement Score 2 • (Less vigor but more than 10 seconds pulses or peristaltic waves) • Resting Score 3 • (Less than 10 second pulses in head and body) • Apathetic Score 4 • (Head and body with less than 2 second pulses) • Faint movement of suckers Score 5 • (Movement of oral or ventral suckers only, whole body paralyzed) • Inert Score 6 • (No movement at all or dead) • (b) S. mansoni adult worms • (c) S. mansoni juvenile worms • (d) S. haemotobium adult worms • (e) Cytotoxicity against human MRC-5 cell line • (f) Cytotoxicity against human HepG2 cell lines

human HepG2 cell lines = assay type: cell-based; conditions: human HepG2 cell line
[1] = 5 μM, score 1 (good movement) to 6 (inert)

SMILES: Fc1ccc(-c2cn3c(-c4ccc5[nH]ncc5c4F)c(C(F)(F)F)nc3cn2)cc1C(F)(F)F [Example 50, 3-(4-Fluoro-1H-indazol-5-yl)-6-(4-fluoro-3-trifluoromethylphenyl)-2-trifluoromethyl-imidazo[1,2-a]pyrazine]
- Mean motility score of F hepatica at 24 h (F. hepatica adult fluke; 0.04 μM): 1, 1, 1
- Mean motility score of F hepatica at 48 h (F. hepatica adult fluke; 0.04 μM): 1, 1, 1
- Mean motility score of F hepatica at 72 h (F. hepatica adult fluke; 0.04 μM): 1, 1, 1
- Mean motility score of F hepatica at 24 h (F. hepatica adult fluke; 0.2 μM): 2
- Mean motility score of F hepatica at 48 h (F. hepatica adult fluke; 0.2 μM): 2
- Mean motility score of F hepatica at 72 h (F. hepatica adult fluke; 0.2 μM): 2.5
- Mean motility score of F hepatica at 24 h (F. hepatica adult fluke; 1 μM): 6, 6, 6
- Mean motility score of F hepatica at 48 h (F. hepatica adult fluke; 1 μM): 6, 6, 6
- Mean motility score of F hepatica at 72 h (F. hepatica adult fluke; 1 μM): 6, 6, 6
- Mean motility score of F hepatica at 24 h (F. hepatica adult fluke; 5 μM): 6, 6, 6
- Mean motility score of F hepatica at 48 h (F. hepatica adult fluke; 5 μM): 6, 6, 6
- Mean motility score of F hepatica at 72 h (F. hepatica adult fluke; 5 μM): 6, 6, 6
- F. hepatica motility score after 24 h (F. hepatica adult fluke; [1]): (6, 6, 6) at 5 μM
- F. hepatica motility score after 48 h (F. hepatica adult fluke; 5 μM, score 1 to 6 (inert)): (6, 6, 6) at 5 μM
- F. hepatica motility score after 72 h (F. hepatica adult fluke; 5 μM, score 1 to 6 (inert)): (6, 6, 6) at 5 μM

SMILES: CC(C)c1nn2cnc(-c3ccc(F)c(C(F)(F)F)c3)cc2c1-c1c(F)cc(O)cc1F [Example 47, 3,5-difluoro-4-(5-(4-fluoro-3-(trifluoromethyl)phenyl)-2-isopropylpyrazolo[1,5-c]pyrimidin-3-yl)phenol]
- F. hepatica motility score after 24 h (F. hepatica adult fluke; [1]): (6, 6, 6) at 5 μM
- F. hepatica motility score after 48 h (F. hepatica adult fluke; 5 μM, score 1 to 6 (inert)): (6, 6, 6) at 5 μM
- F. hepatica motility score after 72 h (F. hepatica adult fluke; 5 μM, score 1 to 6 (inert)): (6, 6, 6) at 5 μM
- Cytotox HepG2 (human HepG2 cell lines): 8.9 µM

SMILES: Fc1ccc(-c2cn3c(-c4ccc5[nH]ncc5c4F)c(C(F)(F)F)nc3cn2)cc1C1CCC1 [Example 82, 6-(3-Cyclobutyl-4-fluoro-phenyl)-3-(4-fluoro-1H-indazol-5-yl)-2-trifluoromethyl-imidazo[1,2-a]pyrazine]
- Cytotox HepG2 (human HepG2 cell lines): 6.1 µM

SMILES: Fc1ccc(-c2cn3c(-c4ccc5[nH]ncc5c4F)c(C(F)(F)F)nc3cn2)cc1OC(F)(F)F [Example 71, 3-(4-Fluoro-1H-indazol-5-yl)-6-(4-fluoro-3-trifluoromethoxy-phenyl)-2-trifluoromethyl-imidazo[1,2-a]pyrazine]
- Cytotox HepG2 (human HepG2 cell lines): 12.2 µM

SMILES: CC(C)c1cc(-c2cn3c(-c4ccc5[nH]ncc5c4Cl)c(C(F)(F)F)nc3cn2)ccc1F [Example 83, 3-(4-Chloro-1H-indazol-5-yl)-6-(4-fluoro-3-isopropyl-phenyl)-2-trifluoromethyl-imidazo[1,2-a]pyrazine]
- Cytotox HepG2 (human HepG2 cell lines): 6.6 µM

SMILES: CC(C)c1cc(-c2cn3c(-c4ccc5[nH]ncc5c4F)c(C4CCC4)nc3cn2)ccc1F [Example 77, 2-Cyclobutyl-3-(4-fluoro-1H-indazol-5-yl)-6-(4-fluoro-3-isopropyl-phenyl)-imidazo[1,2-a]pyrazine]
- Cytotox HepG2 (human HepG2 cell lines): 10.8 µM

SMILES: Oc1cc(F)c(-c2c(C3CC3)nc3cnc(-c4ccc(F)c(C(F)(F)F)c4)cn23)c(F)c1 [Example 34, 4-(2-cyclopropyl-6-(4-fluoro-3-(trifluoromethyl)phenyl)imidazo[1,2-a]pyrazin-3-yl)-3,5-difluorophenol]
- Cytotox HepG2 (human HepG2 cell lines): 8.9 µM

SMILES: CSc1nc2cc(Cl)c(Oc3cccc(Cl)c3Cl)cc2[nH]1 [Triclabendazole, reference compound]
- Mean motility score of F hepatica at 24 h (F. hepatica adult fluke; 40 μM): 2
- Mean motility score of F hepatica at 48 h (F. hepatica adult fluke; 40 μM): 3.5
- Mean motility score of F hepatica at 72 h (F. hepatica adult fluke; 40 μM): 6
- F. hepatica motility score after 24 h (F. hepatica adult fluke; 40 μM, score 1 to 6 (inert)): 3
- F. hepatica motility score after 48 h (F. hepatica adult fluke; 40 μM, score 1 to 6 (inert)): 6
- F. hepatica motility score after 72 h (F. hepatica adult fluke; 40 μM, score 1 to 6 (inert)): 6

SMILES: COc1ccc(-c2c(C(F)(F)F)nc3cnc(-c4cccc(C(F)(F)C(F)(F)F)c4)cn23)cc1O [Example 30, 2-methoxy-5-[2-(trifluoromethyl)-6-[3-(pentafluoroethyl)phenyl]imidazo[1,2-a]pyrazin-3-yl]phenol]
- Cytotox HepG2 (human HepG2 cell lines): 11.1 µM

SMILES: CC(C)c1nc2cnc(-c3ccc(F)c(C(F)(F)F)c3)nc2n1-c1c(F)cc(O)cc1F [Example 89, 3,5-Difluoro-4-[2-(4-fluoro-3-trifluoromethyl-phenyl)-8-isopropyl-purin-9-yl]-phenol]
- F. hepatica motility score after 24 h (F. hepatica adult fluke; [1]): (6, 6, 6)
- F. hepatica motility score after 48 h (F. hepatica adult fluke; 5 μM, score 1 to 6 (inert)): (6, 6, 6)
- F. hepatica motility score after 72 h (F. hepatica adult fluke; 5 μM, score 1 to 6 (inert)): (6, 6, 6)
- Cytotox HepG2 (human HepG2 cell lines): 4.8 µM

SMILES: CCc1nc2cnc(-c3ccc(F)c(C(C)C)c3)cn2c1-c1ccc2[nH]ncc2c1F [Example 75, 2-Ethyl-3-(4-fluoro-1H-indazol-5-yl)-6-(4-fluoro-3-isopropyl-phenyl)-imidazo[1,2-a]pyrazine]
- Cytotox HepG2 (human HepG2 cell lines): 11.3 µM

SMILES: CCc1nn2cnc(-c3ccc(F)c(C(F)(F)F)c3)cc2c1-c1c(F)cc(O)cc1F [Example 48, 4-(2-ethyl-5-(4-fluoro-3-(trifluoromethyl)phenyl)pyrazolo[1,5-c]pyrimidin-3-yl)-3,5-difluorophenol]
- Cytotox HepG2 (human HepG2 cell lines): 9.8 µM

SMILES: Cc1nc2cnc(-c3ccc(F)c(C(F)(F)F)c3)cn2c1-c1c(F)cc(O)cc1F [Example 16, 3,5-difluoro-4-[2-methyl-6-[4-fluoro-3-(trifluoromethyl)phenyl]imidazo[1,2-a]pyrazin-3-yl]phenol]
- Cytotox HepG2 (human HepG2 cell lines): 7.6 µM

SMILES: CC(C)c1nc2cnc(-c3ccc(F)c(C(F)(F)F)c3)cn2c1-c1ccc2[nH]ncc2c1F [Example 2, 4-fluoro-5-{6-[4-fluoro-3-(trifluoromethyl)phenyl]-2-(propan-2-yl)imidazo[1,2-a]pyrazin-3-yl}-1H-indazole]
- Cytotox HepG2 (human HepG2 cell lines): 10.4 µM

SMILES: CC(C)c1nn2cnc(-c3ccc(F)c(C(F)(F)C(F)(F)F)c3)cc2c1-c1ccc2[nH]ncc2c1F [Example 58, 3-(4-Fluoro-1H-indazol-5-yl)-5-(4-fluoro-3-pentafluoroethyl-phenyl)-2-isopropyl-pyrazolo[1,5-c]pyrimidine]
- Cytotox HepG2 (human HepG2 cell lines): 10.8 µM

SMILES: CC(C)Oc1cc(-c2cn3c(-c4ccc5[nH]ncc5c4F)c(C(F)(F)F)nc3cn2)ccc1F [Example 81, 3-(4-Fluoro-1H-indazol-5-yl)-6-(4-fluoro-3-isopropoxy-phenyl)-2-trifluoromethyl-imidazo[1,2-a]pyrazine]
- Cytotox HepG2 (human HepG2 cell lines): 9.2 µM

SMILES: CC1(c2nc3cnc(-c4ccc(F)c(C(F)(F)F)c4)cn3c2-c2c(F)cc(O)cc2F)CC1 [Example 33, 3,5-difluoro-4-[2-(1-methyl-cycloprop-1-yl)-6-[4-fluoro-3-(trifluoromethyl)phenyl]imidazo[1,2-a]pyrazin-3-yl]phenol]
- Cytotox HepG2 (human HepG2 cell lines): 7.9 µM

SMILES: CC(C)c1nc2cnc(-c3cccc(C(F)(F)F)c3)nc2n1-c1ccc(O)cc1F [Example 90, 3-fluoro-4-[8-(propan-2-yl)-2-[3-(trifluoromethyl)phenyl]-9H-purin-9-yl]phenol]
- Cytotox HepG2 (human HepG2 cell lines): 9.3 µM

SMILES: Fc1ccc(-c2cn3c(-c4ccc5[nH]ncc5c4F)c(C4CC4)nc3cn2)cc1C(F)(F)F [Example 32, 4-fluoro-5-{2-cyclopropyl-6-[4-fluoro-3-(trifluoromethyl)phenyl]imidazo[1,2-a]pyrazin-3-yl}-1H-indazole]
- Cytotox HepG2 (human HepG2 cell lines): 16.1 µM

SMILES: CC(C)c1nc2cnc(-c3cccc(C(F)(F)F)c3)cn2c1-c1c(F)cc(O)cc1F [Example 19, 3,5-difluoro-4-[2-(propan-2-yl)-6-[3-(trifluoromethyl)phenyl]imidazo[1,2-a]pyrazin-3-yl]phenol]
- Cytotox HepG2 (human HepG2 cell lines): 7.5 µM

SMILES: CC(C)c1nc2cnc(-c3cccc(C(F)(F)F)c3)cn2c1-c1ccc2[nH]ncc2c1F [Example 21, 4-fluoro-5-{2-propan-2-yl-6-[3-trifluoromethylphenyl]imidazo[1,2-a]pyrazin-3-yl}-1H-indazole]
- Cytotox HepG2 (human HepG2 cell lines): 15.1 µM

SMILES: Cc1nc2cnc(-c3cccc(C(F)(F)C(F)(F)F)c3)cn2c1-c1c(F)cc(O)cc1F [Example 49, 3,5-difluoro-4-[2-methyl-6-[3-(pentafluoroethyl)phenyl]imidazo[1,2-a]pyrazin-3-yl]phenol]
- Cytotox HepG2 (human HepG2 cell lines): 9.3 µM
